# T1: Solute carrier family 22 member 1 (Homo sapiens, UniProt O15245)
# T1 sequence (O15245 whole entry): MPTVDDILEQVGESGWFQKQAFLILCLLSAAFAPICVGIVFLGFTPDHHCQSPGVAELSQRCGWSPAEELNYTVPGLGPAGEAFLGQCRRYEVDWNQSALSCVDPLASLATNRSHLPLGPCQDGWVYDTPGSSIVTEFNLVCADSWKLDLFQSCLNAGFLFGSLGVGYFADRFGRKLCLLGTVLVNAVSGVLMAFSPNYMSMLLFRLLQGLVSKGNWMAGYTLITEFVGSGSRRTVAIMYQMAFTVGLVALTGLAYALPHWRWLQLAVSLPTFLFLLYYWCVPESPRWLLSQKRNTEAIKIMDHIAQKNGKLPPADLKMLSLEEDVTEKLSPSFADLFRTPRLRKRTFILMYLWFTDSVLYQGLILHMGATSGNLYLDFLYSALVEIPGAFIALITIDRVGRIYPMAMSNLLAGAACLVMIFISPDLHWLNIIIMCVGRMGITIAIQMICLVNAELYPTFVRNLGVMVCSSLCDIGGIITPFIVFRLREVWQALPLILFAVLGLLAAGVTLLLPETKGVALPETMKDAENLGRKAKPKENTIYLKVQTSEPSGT
# B1: Solute carrier family 22 member 1 (Homo sapiens) (protein)
# chain: T1 sequence (O15245 whole entry)
# Target: T1, Solute carrier family 22 member 1
# Test: TP_TRANSPORTER: inhibition of TEA uptake in OCT1-expressing HeLa cells
# Assay type: functional, cell-based
row,Molecule,Ki
1,CCN1/C(=C/c2ccc3ccccc3[n+]2CC)C=Cc2ccccc21,2.73 µM
2,CC(=O)O[C@H]1C[C@@H]2CC[C@@H]3[C@H](CC[C@@]4(C)[C@H]3C[C@H]([N+]3(C)CCCCC3)[C@@H]4OC(C)=O)[C@@]2(C)C[C@@H]1N1CCCCC1 [VECURONIUM],232 µM
3,CC[N+](CC)(CC)CC [TETRYLAMMONIUM],161 µM
4,C[n+]1ccc(-c2ccccc2)cc1,12.3 µM
5,Clc1cccc(Cl)c1N=C1NCCN1 [CLONIDINE],0.55 µM
6,CN/C(=N/CCSCc1nc[nH]c1C)NC#N [CIMETIDINE],166 µM
7,CCN(CC)CCNC(=O)c1ccc(N)cc1 [PROCAINAMIDE],73.9 µM
8,CNCCCN1c2ccccc2CCc2ccccc21 [DESIPRAMINE],5.36 µM
9,CCCCC[N+](CCCCC)(CCCCC)CCCCC [TETRAPENTYLAMMONIUM],7.46 µM
10,CNC(=O)c1cccnc1 [NICOTINYL METHYLAMIDE],7700 µM
11,C[C@]12C[C@H](O)[C@H]3[C@@H](CCC4=CC(=O)CC[C@@]43C)[C@@H]1CC[C@@H]2C(=O)CO [CORTICOSTERONE],7.02 µM
12,CCCC(=O)Nc1ccc(OCC(O)CNC(C)C)c(C(C)=O)c1 (stereo not given) [ACEBUTOLOL],95.8 µM
13,Cc1ncc2n1-c1ccc(Cl)cc1C(c1ccccc1F)=NC2 [MIDAZOLAM],3.7 µM

# Target: T1, Solute carrier family 22 member 1
# Test: TP_TRANSPORTER: inhibition of TEA uptake (TEA: 5 uM, Amantadine: 100 uM) in OCT1-expressing HeLa cells
# Assay type: functional, cell-based
row,Molecule,Activity
1,NC12CC3CC(CC(C3)C1)C2 [AMANTADINE],inhibitor [(at a rough estimate) 60 % of control]

# Substrate: CC[N+](CC)(CC)CC
# Test: cells, lysate or membranes named
row,Molecule,Km
1,B1,229 µM

# From ChEMBL document CHEMBL2074317, “Functional characterization of an organic cation transporter (hOCT1) in a transiently transfected human cell line (HeLa)” (J Pharmacol Exp Ther, 1998)
